The record followed here is ChEMBL document CHEMBL1641368, “NF kappa B inhibitors and antitrypanosomal metabolites from endophytic fungus Penicillium sp. isolated from Limonium tubiflorum” (Bioorg Med Chem, 2011).

In brackets after ≈: the same amount, converted by molar mass.

Test [1] concerns Trypanosoma brucei brucei. In words: Antitrypanosomal activity against Trypanosoma brucei brucei S427 after 48 hrs by alamar blue assay. Format: functional. As to conditions: S427, 48 h; call rule not given here. Background: Resazurin is reduced to fluorescent resorufin, in cell work by metabolically active cells.
The subject of test [2] is U-937. In words: Cytotoxicity against human U937 cells after 24 hrs by MTT assay. The format is functional, cell-based. The conditions noted are these: U-937, 24 h. (In general: Tetrazolium assays rely on reduction of a dye to a coloured formazan, in cell work by metabolically active cells.)
Test [3] in a line: Inhibition of NF-kappaB activity in TNFalpha-stimulated human K562 cells after 24 hrs by luciferase reporter gene assay. Format: cell-based. As to conditions: K562, 24 h. Background: A reporter such as luciferase makes a cellular process visible.
Test [4] has as its system K562. In words: Cytotoxicity against human K562 cells after 24 hrs by MTT assay. The format is functional, cell-based.
Test [5] concerns Jurkat. In words: Cytotoxicity against human Jurkat cells after 24 hrs by MTT assay. Format: functional, cell-based.
[6] abbreviates: Homo sapiens, K562, 24 h, read-out: IC50.

A word on the MIC: it is the lowest concentration found to suppress growth. Higher therefore signals a need for much substance. Take `C=C1CC[C@@H]2C(C)(C)CCC[C@@]2(C)[C@@H]1CC/C(C)=C/Cn1c[n+](C)c2ncnc(N)c21` [AGELASINE D]: inhibition of growth in test [1] (MIC) required 14.8 µM.
As usually defined, the IC50 is the concentration needed to halve the response being measured. Molecule `COc1cc(C)cc2c1C(=O)c1c(O)cc(O)c(Cl)c1[C@H]2[C@H]1c2cc(C)cc(OC)c2C(=O)c2c(O)cc(O)c(Cl)c21` [NEOBULGARONE E] displayed an MIC in test [1] above 100 µM. The IC50 in test [2] was 47.6 µM; in test [3], 46 µM; in test [4] (setting [6]) it was above 100 µM; in test [5], 82.4 µM.
`Cc1cc(=O)c2c(C)cc(O)cc2o1`: the MIC in test [1] is above 100 µM.
In test [1], `COc1cc(CO)cc2c1C(=O)c1c(O)cc(O)c(Cl)c1C2=O` registered an MIC of 18.7 µM (≈ 6.26 µg/mL). Further, the IC50 in test [2] turned out to be 22 µM; in test [3], 16 µM; in test [4] (setting [6]) it was 40.1 µM; in test [5] it was 28.4 µM.
In the case of `C[C@H]1CCC/C=C/C(=O)c2c(O)cc(O)cc2CC(=O)O1` [DEHYDROCURVULARIN], in test [1], the minimum inhibitory concentration (MIC) was above 100 µM. Further, the IC50 was determined as 2.5 µM in test [2], 5.6 µM in test [3], 37 µM in test [4] (setting [6]) and 5.5 µM in test [5].
In test [1], `C[C@H]1CCC/C=C\C(=O)c2c(O)cc(O)cc2CC(=O)O1` displayed a minimum inhibitory concentration (MIC) above 100 µM.
Still for that read-out and setting: the result for `Cc1ccc(C(=O)Nc2ccc(S(=O)(=O)O)c3cc(S(=O)(=O)O)cc(S(=O)(=O)O)c23)cc1NC(=O)c1cccc(NC(=O)Nc2cccc(C(=O)Nc3cc(C(=O)Nc4ccc(S(=O)(=O)O)c5cc(S(=O)(=O)O)cc(S(=O)(=O)O)c45)ccc3C)c2)c1` [SURAMIN] reads 0.06 µM (≈ 0.0778 µg/mL).
In test [1], `COc1cc(CO)cc2c1C(=O)c1c(O)cc(O)cc1C2=O` [CARVIOLIN] came in with an MIC of 41.7 µM (≈ 12.5 µg/mL). In addition, the IC50 in test [2] was above 100 µM; in test [3] it was above 100 µM; in test [4] (k562) it was “Not Active”; in test [5], above 100 µM.
`C[C@H]1CCC[C@H]2O[C@@H]2C(=O)c2c(O)cc(O)cc2CC(=O)O1` came in with an MIC in test [1] above 100 µM.
In test [1], `COc1cc(C)cc2c1C(=O)c1c(O)cc(O)c(Cl)c1[C@H]2[C@H]1c2cc(CO)cc(OC)c2C(=O)c2c(O)cc(O)c(Cl)c21` [NEOBULGARONE G] returned an MIC above 100 µM. In addition, the IC50 in test [2] is above 100 µM; in test [3] it was above 100 µM; in test [4] (k562) it was “Not Active”; in test [5], above 100 µM.
As to `CO[C@H]1CCC[C@H](C)OC(=O)Cc2cc(O)cc(O)c2C(=O)C1` [11ALPHA-METHOXYCURVULARIN], in test [1], the MIC was found to be 9.68 µM (≈ 3.12 µg/mL). Moreover, the IC50 in test [2] came out at 4.6 µM; in test [3], 10.1 µM; in test [4] (setting [6]), 41.1 µM; in test [5], 2.3 µM.
Taken in the same sequence, the figures for `COc1cc(C)cc2c1C(=O)c1c(O)cc(O)c(Cl)c1C2=O` were 78.6 µM (≈ 25.1 µg/mL), 7.6 µM, 1.6 µM, 24.8 µM and 13.3 µM.
In test [1], `COc1cc(C)cc2c1C(=O)c1c(O)cc(O)c(Cl)c1C2O` (configuration not stated) came in with an MIC of 9.75 µM (≈ 3.13 µg/mL). In other words, the single-digit micromolar range.
On the same count and under the same terms, the result for `C[S+]([O-])c1cccc2ccc(=O)oc12` (configuration not stated) [SULFIMARINE] reads above 100 µM.
Consider `C/C=C/C=C/C(=O)C1=C(O)[C@@]2(C)[C@H]3C(C(=O)/C=C/C=C/C)=C(O)[C@@]4(C)[C@@H]1[C@]1(C)O[C@@]4(O)[C@@]3(C)O[C@@]12O` [TRICHODIMEROL], for which the MIC in test [1] turned out to be 6.29 µM (≈ 3.12 µg/mL). Moreover, the IC50 was determined as 16.5 µM in test [2], 47.8 µM in test [3], 74.4 µM in test [4] (setting [6]) and 28.5 µM in test [5].
In the case of `CO[C@@H]1CCC[C@H](C)OC(=O)Cc2cc(O)cc(O)c2C(=O)C1` [11BETA-METHOXYCURVULARIN], the MIC in test [1] came to 4.96 µM (≈ 1.6 µg/mL). The IC50 was 1.8 µM in test [2], 4.7 µM in test [3], 12.4 µM in test [4] (setting [6]) and 3.9 µM in test [5].
`COc1cc(C)cc2c1C(=O)c1c(O)cc(O)cc1C2=O` [1-O-METHYLEMODIN] registered an MIC in test [1] of 11 µM (≈ 3.12 µg/mL). Besides, the IC50 in test [2] is 88.6 µM; in test [3], above 100 µM; in test [4] (k562), “Not Active”; in test [5], above 100 µM.
